Laboratory results taken from patent US20110053951A1, “METHODS FOR TREATING DISORDERS USING NMDA NR2B-SUBTYPE SELECTIVE ANTAGONIST” (EVOTEC NEUROSCIENCES GMBH, priority 2008, published 2011).
Where a name gives a salt, the structure may show the parent alone.

Legend:
[1] = biological target: NR2B subtype of the NMDA receptor (Homo sapiens, UniProt Q05586+Q13224); assay: Receptor occupancy estimated by extrapolation from CSF concentrations; assay type: in vivo; conditions: daily dose of 8 mg; extrapolated from CSF concentrations; compared with therapeutic dosages of memantine
Sequence of NR2B subtype of the NMDA receptor (Q13224 27-1484, other chains not shown): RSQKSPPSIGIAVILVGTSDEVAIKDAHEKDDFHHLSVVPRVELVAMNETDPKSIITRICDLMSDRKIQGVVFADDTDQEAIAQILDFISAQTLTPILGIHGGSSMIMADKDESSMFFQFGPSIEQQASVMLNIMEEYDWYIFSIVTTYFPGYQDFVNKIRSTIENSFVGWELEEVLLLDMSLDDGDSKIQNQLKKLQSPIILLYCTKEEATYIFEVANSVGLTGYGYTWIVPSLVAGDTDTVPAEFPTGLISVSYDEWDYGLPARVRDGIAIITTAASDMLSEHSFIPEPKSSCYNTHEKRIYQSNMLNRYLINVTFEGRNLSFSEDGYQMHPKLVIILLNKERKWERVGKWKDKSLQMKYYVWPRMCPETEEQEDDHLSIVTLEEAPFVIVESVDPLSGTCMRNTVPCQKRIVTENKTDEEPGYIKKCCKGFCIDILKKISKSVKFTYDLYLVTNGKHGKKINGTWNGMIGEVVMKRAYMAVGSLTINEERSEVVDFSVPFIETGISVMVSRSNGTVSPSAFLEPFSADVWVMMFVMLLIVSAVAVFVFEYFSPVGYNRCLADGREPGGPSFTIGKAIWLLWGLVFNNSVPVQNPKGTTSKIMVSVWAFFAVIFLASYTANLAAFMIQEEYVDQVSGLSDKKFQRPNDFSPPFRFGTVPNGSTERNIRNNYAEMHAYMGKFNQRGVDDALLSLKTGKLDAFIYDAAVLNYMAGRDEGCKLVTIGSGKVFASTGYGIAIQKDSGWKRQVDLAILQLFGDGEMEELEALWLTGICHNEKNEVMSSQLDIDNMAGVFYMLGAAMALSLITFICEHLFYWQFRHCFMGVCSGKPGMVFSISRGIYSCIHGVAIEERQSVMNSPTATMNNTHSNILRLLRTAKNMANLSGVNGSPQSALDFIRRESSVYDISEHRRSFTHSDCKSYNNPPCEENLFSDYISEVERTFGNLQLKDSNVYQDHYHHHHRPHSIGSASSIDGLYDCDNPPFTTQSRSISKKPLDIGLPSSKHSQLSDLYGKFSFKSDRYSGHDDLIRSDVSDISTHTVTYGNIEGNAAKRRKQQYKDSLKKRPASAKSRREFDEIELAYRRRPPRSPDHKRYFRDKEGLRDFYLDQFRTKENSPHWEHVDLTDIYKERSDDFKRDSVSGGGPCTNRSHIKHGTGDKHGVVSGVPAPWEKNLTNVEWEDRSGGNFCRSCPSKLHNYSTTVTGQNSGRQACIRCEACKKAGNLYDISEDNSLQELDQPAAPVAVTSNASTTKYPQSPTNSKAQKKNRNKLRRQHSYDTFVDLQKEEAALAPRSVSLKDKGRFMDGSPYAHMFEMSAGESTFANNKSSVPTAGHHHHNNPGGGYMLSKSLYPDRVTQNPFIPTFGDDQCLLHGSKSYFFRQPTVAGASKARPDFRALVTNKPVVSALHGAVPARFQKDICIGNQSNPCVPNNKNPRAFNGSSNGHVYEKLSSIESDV
Description: CSF samples were stored immediately in an upright position at a temperature of −70° C. or below until shipment. Compound of formula (I) concentrations were measured by a specific and validated LC-MS-MS method. […] Such concentrations in the CSF have been extrapolated to estimate the extent of occupancy of the NR2B subtype of the NMDA receptor.

[2] = Cerebrospinal fluid (CSF) penetration by lumbar puncture, LC-MS-MS; assay type: in vivo, human; conditions: 8 mg daily for 8 days, six healthy subjects, 3 to 4 hours after dosing on day 8
Description: One lumbar puncture per subject was performed on day 8 of treatment (daily dose of 8 mg of bis HCl salt of the compound of formula (I)), in the timeframe of 3 to 4 hours after dosing.
All care was taken to avoid contamination of the collected CSF sample with blood. Thus, only clear CSF was collected, after blood-contaminated liquid has left the cannula. Bloody taps were discarded.
Samples were aliquoted per time point for the measurement of compound of formula (I) as follows: a 0.5 ml CSF sample was aliquoted in empty dry polypropylene tubes from the ≈5 ml CSF collected at each scheduled time point.
CSF samples were stored immediately in an upright position at a temperature of −70° C. or below until shipment. Compound of formula (I) concentrations were measured by a specific and validated LC-MS-MS method. Cerebrospinal fluid (CSF) penetration has been assessed in six healthy subjects receiving 8 mg of bis HCl salt of compound of formula (I) daily for 8 days. […] Such concentrations in the CSF have been extrapolated to estimate the extent of occupancy of the NR2B subtype of the NMDA receptor. […] The selectivity of the compound of formula (I) and salts thereof in combination with the good penetration of the blood brain barrier at well-tolerated dosages according to the present invention provides a therapeutic advantage.

healthy volunteers [3] = assay: Continuous arterial spin labeling (CASL) perfusion MRI of regional cerebral blood flow (rCBF); assay type: in vivo, human; conditions: for increase in rCBF: anterior cingulate cluster
Description: (§1) A double blind, placebo controlled study was conducted in 19 healthy volunteers to investigate the role of NMDA receptor NR2B subunit selective antagonism on cognitive functions and neurophysiology as measured with magnetic resonance imaging (MRI). This study utilized functional MRI to determine changes in regional cerebral blood flow (rCBF) and the putative modulation of neural networks during performance of cognitive tasks by the subjects after they were administered the bis HCl salt of compound of formula (I).
The 19 healthy male volunteers who participated in this study were scanned using functional magnetic resonance imaging (fMRI) whilst performing cognitive tasks (including the PAL task described below in more detail) designed to measure associative learning, sustained attention, and episodic memory. These tasks were repeated on three study days two hours prior to the fMRI session. On these three separate occasions, the participants received a capsule containing either placebo (microcrystalline cellulose), 8 mg, or 15 mg of the bis HCl salt of compound of formula (I) such that all treatments were given to all participants. During the fMRI session, the tasks were presented in a randomized order to each subject; however, the order assigned was then maintained across all three study sessions. Additional practice on the tasks was offered to the participants before entering the scanner, and the instructions were repeated prior to each task being performed whilst in the scanner.
Images were acquired on a 1.5T GE Excite HDx system (General Electric, Milwaukee, Wis.). For all tasks a gradient-echo EPI sequence was used with TE=40 ms, FOV=24 cm, and in-plane resolution of 3.75 mm^2 (matrix=64^2). Thirty-eight axial slices with thickness 3 mm (0.3 mm gap) approximately parallel to the AC/PC line were obtained. For the paired associates learning task TR=3000 ms. In addition, a high-resolution image was acquired using single shot EPI with TR=3000 ms, TE=40 ms, FOV=24 cm, 3 mm slice thickness with 0.3 mm gap, matrix=128^2, and 43 slices. This image was used to determine coregistration parameters.
Whole-brain resting perfusion images were acquired with a continuous arterial spin labeling (CASL) sequence consisting of a pseudo-continuous flow-driven, adiabatic inversion scheme and a continuous 3D fast spin echo (FSE) sequence with an interleaved stack of variable density spirals acquisition (Alsop and Detre (1998) Multisection cerebral blood flow MR imaging with continuous arterial spin labeling. Radiology 208: 410-6). CASL perfusion images are able to delineate grey and white matter and provide high resolution quantification of rCBF across the whole brain. Because of the genuine 3-dimensional encoding and readout of this multi-shot technique, and the refocusing of magnetic susceptibility induced signal distortions, the maps of whole brain rCBF obtainable with this technique are of good image quality and exquisite spatial resolution.
For the perfusion images, brain volumes were first normalized into a standard anatomical space (International Consortium on Brain Mapping—ICBM), using affine registration and non-linear transformations. Normalization utilized a single image to which all three CASL sessions were coregistered in order to reduce the likelihood of preprocessing-dependent differences between the drug and placebo session images. All images were spatially smoothed using a Gaussian kernel full-width at half-maximum filter of 6×6×6 mm to improve signal-to-noise ratio and allow for inherent functional and gyral variability across participants.
Image preprocessing and analysis were carried out using Statistical Parametric Mapping software developed by the Functional Imaging Laboratory, UCL, (SPM v5.0, www.fillon.ucl.ac.ulc/spm/)., running under Matlab 7.0.1, and a blood oxygen level dependency (BOLD) was determined. BOLD changes to cognitive tasks represent changes of neuronal activities of respective brain areas.

healthy volunteers [4] = assay: fMRI (BOLD) during Paired Associates Learning (PAL) task; assay type: in vivo, human
Description: as §1
The 19 healthy male volunteers who participated in this study were scanned using functional magnetic resonance imaging (fMRI) whilst performing cognitive tasks (including the PAL task described below in more detail) designed to measure associative learning, sustained attention, and episodic memory. These tasks were repeated on three study days two hours prior to the fMRI session. […]
Image preprocessing and analysis were carried out using Statistical Parametric Mapping software developed by the Functional Imaging Laboratory, UCL, (SPM v5.0, www.fillon.ucl.ac.ulc/spm/)., running under Matlab 7.0.1, and a blood oxygen level dependency (BOLD) was determined. […]

[5] = tested on: healthy young and elderly subjects; assay: Double-blind, placebo-controlled, single and multiple oral dose safety and tolerability study; assay type: in vivo, human
Description: A double-blind, placebo-controlled, randomized, single, and multiple oral dose study was conducted in order to determine safety and tolerability of the bis HCl salt of compound of formula (I) in healthy young and elderly subjects. The study was conducted in two parts.
Part 1 comprised an ascending single dose, sequential group study in 48 young male subjects, incorporating a two-period crossover arm to investigate the effect of food. Part 2 comprised an ascending multiple dose, sequential group study in 24 young male subjects and an ascending single and multiple dose, sequential group study in 18 elderly subjects (10 males and 8 females) subjects. On each dosing occasion, the subjects received a single capsule containing the appropriate amount of either the bis HCl salt of compound of formula (I) or microcrystalline cellulose. Treatments were administered orally with 240 ml water while the subjects were in a standing position.
The condition of each subject was monitored throughout the study. In addition, any signs and symptoms were observed and elicited at least once a day by open questioning, such as “How have you been feeling since you were last asked?” Subjects were also encouraged to report spontaneously any adverse events during the study.
Any adverse events or remedial actions were recorded. The nature, time of onset, duration, and severity were documented. Any clinically significant abnormalities found during the course of the study were followed up until they returned to normal or could be clinically explained.
A serious adverse event is defined as any untoward medical occurrence that at any dose either results in death, is life-threatening, requires inpatient hospitalization, or prolongs existing hospitalization, results in persistent or significant disability/incapacity, and/or results in a congenital anomaly/birth defect.
Important medical events that may not result in death, be life-threatening, or require hospitalization may be considered to be serious adverse events when, based upon appropriate medical judgment, they may jeopardize the subject or may require medical or surgical intervention to prevent one of the above-described outcomes.

[6] = throughout the study, young and elderly subjects

## Cc1nccn1Cc1cc(-c2ccc(F)c(C(F)F)c2)cnn1 [compound of formula (I), 5-(3-difluoromethyl-4-fluoro-phenyl)-3-(2-methyl-imidazol-1-yl-methyl)-pyridazine]
[1]
  receptor occupancy: greater than that, which corresponds to currently used therapeutic dosages of memantine
[2]
  CSF concentration relative to plasma concentration: largely corresponds to the free (unbound) plasma concentrations

## Cc1nccn1Cc1cc(-c2ccc(F)c(C(F)F)c2)cnn1 [bis HCl salt of compound of formula (I), 5-(3-difluoromethyl-4-fluoro-phenyl)-3-(2-methyl-imidazol-1-yl-methyl)-pyridazine]
Healthy volunteers [3]; 8 mg and 15 mg oral
  decreases in rCBF: no clusters of voxels showing significant decreases in rCBF
Healthy volunteers [3]; 8 mg oral vs placebo
  areas of increased/decreased perfusion: No statistically significant changes
Healthy volunteers [3]; 8 mg oral
  increase in rCBF: 17.5%
Healthy volunteers [3]; 15 mg oral, anterior cingulate
  rCBF, direct comparison with placebo: highly significant cluster of increased rCBF
Healthy volunteers [3]; 15 mg oral
  increase in rCBF: 17.9%
Healthy volunteers [3]; averaged over 8 mg and 15 mg vs placebo, genu of the anterior cingulate cortex
  rCBF normalized to global signal, main effect of drug: increased signal
Healthy volunteers [3]; formal comparison across the entire brain volume, ignoring placebo
  dose response relationship of perfusion between 8 mg and 15 mg: No changes were seen
Healthy volunteers [3]; placebo, 8 mg and 15 mg oral, CASL perfusion maps
  global perfusion (whole brain): no difference across the three conditions studied
Healthy volunteers [3]; placebo, 8 mg and 15 mg, threshold p=0.05 corrected across whole brain
  regional effects on absolute perfusion: no significant clusters where signal differed
Healthy volunteers [4]; 8 mg and 15 mg oral, healthy young subjects
  functional performance of subjects in PAL: unaffected
Healthy volunteers [4]; placebo, 8 mg, 15 mg oral, PAL task, preliminary analysis
  BOLD signal during retrieval in memory retrieval network: dose dependent increases in BOLD signal
[5]; elderly males and females, multiple oral doses (over 8 days) of up to 3 mg twice daily
  tolerability: very well tolerated
[5]; elderly males and females, single oral doses of up to 4 mg
  tolerability: very well tolerated
[5]; following single or multiple dosing in young or elderly subjects
  vital signs and electrocardiogram (ECG) parameters: no apparent trends
[5]; [6]
  incidence of adverse events: low incidence of mainly mild adverse events
  serious or severe adverse events: no serious or severe adverse events
[5]; young males, multiple oral doses (over 8 days) of up to 8 mg once daily
  tolerability: very well tolerated
[5]; young males, single oral doses of up to 15 mg (including 2, 5 and 10 mg)
  tolerability: very well tolerated
